Laboratory results published in patent publication US8703963B2, “Derivative N-thiolated 2-oxazolidinone antibiotics” (University of South Florida, priority 2005, dated 2014).
Marks after values point to notes of the source that are not given here.

Legend:
[1] = system: MRSA USF652; assay: Kirby-Bauer agar disk diffusion; conditions: 20 μg on 6 mm disk, 24 h at 37° C., triplicate
[2] = system: MRSA USF655; assay: Kirby-Bauer agar disk diffusion; conditions: 20 μg on 6 mm disk, 24 h at 37° C., triplicate
[3] = system: MRSA USF658; assay: Kirby-Bauer agar disk diffusion; conditions: 20 μg on 6 mm disk, 24 h at 37° C., triplicate
[4] = system: MRSA USF656; assay: Kirby-Bauer agar disk diffusion; conditions: 20 μg on 6 mm disk, 24 h at 37° C., triplicate
[5] = system: MRSA USF654; assay: Kirby-Bauer agar disk diffusion; conditions: 20 μg on 6 mm disk, 24 h at 37° C., triplicate
[6] = system: MRSA USF659; assay: Kirby-Bauer agar disk diffusion; conditions: 20 μg on 6 mm disk, 24 h at 37° C., triplicate
[7] = system: S. aureus 849 (ATCC 25923); assay: Kirby-Bauer agar disk diffusion; conditions: for zone of growth inhibition, average diameter: S. aureus 849 (ATCC 25923), 20 μg on 6 mm disk, 24 h at 37° C., triplicate; for S. aureus (Inhibition), median zone of inhibition: S. Aureaus strain 849, c = partial inhibition within this diameter
[8] = system: MRSA USF657; assay: Kirby-Bauer agar disk diffusion; conditions: 20 μg on 6 mm disk, 24 h at 37° C., triplicate
[9] = system: MRSA USF653; assay: Kirby-Bauer agar disk diffusion; conditions: 20 μg on 6 mm disk, 24 h at 37° C., triplicate
[10] = system: 10 strains of MRSA (652-659, 919-920); assay: Kirby-Bauer zones of inhibition, 10 strains of MRSA; conditions: for MRSA (inhibition), median diameter of zone of inhibition: median of 10 strains of MRSA (652-659, 919-920), c = partial inhibition within this diameter
[11] = system: B. cereus; assay: Kirby-Bauer agar disk diffusion; type: cell-based; conditions: 20 μg on 6 mm disk, 24 h at 37° C., triplicate
[12] = system: MRSA USF919 (ATCC 43300); assay: Kirby-Bauer agar disk diffusion; conditions: 20 μg on 6 mm disk, 24 h at 37° C., triplicate
[13] = system: Bacillus anthracis (Sterne strain); type: cell-based; conditions: B. anthracis (Sterne strain); 20 μg on 6 mm disk; 24 h at 37° C.; triplicate
[14] = system: MRSA USF920 (ATCC 33591); assay: Kirby-Bauer agar disk diffusion; conditions: 20 μg on 6 mm disk, 24 h at 37° C., triplicate
[15] = system: B. coagulans; assay: Kirby-Bauer agar disk diffusion; type: cell-based; conditions: 20 μg on 6 mm disk, 24 h at 37° C., triplicate
[16] = system: B. megaterium; assay: Kirby-Bauer agar disk diffusion; type: cell-based; conditions: 20 μg on 6 mm disk, 24 h at 37° C., triplicate
[17] = system: B. subtilus; assay: Kirby-Bauer agar disk diffusion; type: cell-based; conditions: 20 μg on 6 mm disk, 24 h at 37° C., triplicate
[18] = system: B. thurigensis; assay: Kirby-Bauer agar disk diffusion; type: cell-based; conditions: 20 μg on 6 mm disk, 24 h at 37° C., triplicate
[19] = system: B. globigii; assay: Kirby-Bauer agar disk diffusion; type: cell-based; conditions: 20 μg on 6 mm disk, 24 h at 37° C., triplicate
[20] = system: MRSA; assay: Broth MIC; type: cell-based, Staphylococcus aureus
[21] = system: S. aureus; assay: Broth MIC; type: cell-based, Staphylococcus aureus

Row | Compound | zone of growth inhibition, average diameter [1] [mm] | zone of growth inhibition, average diameter [2] [mm] | zone of growth inhibition, average diameter [3] [mm] | zone of growth inhibition, average diameter [4] [mm] | zone of growth inhibition, average diameter [5] [mm] | zone of growth inhibition, average diameter [6] [mm] | zone of growth inhibition, average diameter [7] [mm] | zone of growth inhibition, average diameter [8] [mm] | zone of growth inhibition, average diameter [9] [mm] | MRSA (inhibition), median diameter of zone of inhibition [10] | S. aureus (Inhibition), median zone of inhibition [7] | zone of growth inhibition, average diameter [11] [mm] | zone of growth inhibition, average diameter [12] [mm] | zone of growth inhibition, average diameter [13] [mm] | zone of growth inhibition, average diameter [14] [mm] | zone of growth inhibition, average diameter [15] [mm] | zone of growth inhibition, average diameter [16] [mm] | zone of growth inhibition, average diameter [17] [mm] | zone of growth inhibition, average diameter [18] [mm] | zone of growth inhibition, average diameter [19] [mm] | further results
1 | COC1C(=O)N(SC)C1c1ccccc1 (racemic) [Lac, reference compound] | 30 | 25 | 26 | 28 | 26 | 24 | 25 | 27 | 30 | – | – | – | – | – | – | – | – | – | – | – | –
2 | CSN1C(=O)OC[C@@H]1C(C)C [oxazolidinone 8] | – | – | – | – | – | – | – | – | – | 16^c mm | 20^c mm | – | – | – | – | – | – | – | – | – | –
3 | CSN1C(=O)OC[C@H]1C(C)C [compound 9] | 12 | 18 | 19 | 20 | 20 | 22 | 21 | 19 | 25 | – | – | 15 | 13 | 15 | 15 | 0 | 10 | 19 | 0 | 17 | clarity of growth inhibition zones ([10]; Kirby-Bauer, anti-MRSA, compared with S-stereoisomer 8): incomplete growth inhibition
4 | CSN1C(=O)OC[C@H]1C(C)C [oxazolidinone 9, 4R-(+)-N-methylthio-4-isopropyl-2-oxazolidinone] | – | – | – | – | – | – | – | – | – | 19^c mm | 21^c mm | – | – | – | – | – | – | – | – | – | –
5 | CSN1C(=O)OC[C@@H]1C(C)C [compound 8] | 19 | 22 | 16 | 22 | 23 | 22 | 20 | 22 | 27 | – | – | 22 | 21 | 23 | 18 | 17 | 18 | 17 | 16 | 15 | broth MIC value [20]: 16 µg/mL; broth MIC value [21]: 16 µg/mL
6 | CCC(C)SN1CC(CCl)OC1=O (stereo not drawn) [compound 5] | 19 | 22 | 21 | 20 | 22 | 20 | 19 | 22 | 20 | – | – | – | 19 | – | 19 | – | – | – | – | – | –
7 | CSN1C(=O)OC[C@@H]1c1ccccc1 [compound 6] | 30 | 29 | 29 | 31 | 29 | 26 | 30 | 29 | 31 | – | – | 24 | 30 | 23 | 28 | 17 | 18 | 19 | 17 | 15 | –
8 | CSN1C(=O)OC[C@H]1c1ccccc1 [oxazolidinone 7, 4R-(−)-N-methylthio-4-phenyl-2-oxazolidinone] | – | – | – | – | – | – | – | – | – | 28 mm | 29 mm | – | – | – | – | – | – | – | – | – | –
9 | CSN1C(=O)OC[C@@H]1c1ccccc1 [oxazolidinone 6, 4S-(+)-N-methylthio-4-phenyl-2-oxazolidinone] | – | – | – | – | – | – | – | – | – | 29 mm | 30 mm | – | – | – | – | – | – | – | – | – | –
10 | CC1(C)S[C@@H]2[C@H](NC(=O)Cc3ccccc3)C(=O)N2[C@H]1C(=O)O [Pen G, penicillin G, reference compound] | 8 | 14 | 19 | 12 | 10 | 16 | 33 | 12 | 15 | – | – | – | – | – | – | – | – | – | – | – | –
11 | CSN1C(=O)OC[C@H]1c1ccccc1 [compound 7] | 30 | 28 | 27 | 28 | 26 | 26 | 29 | 27 | 30 | – | – | 23 | 28 | 23 | 28 | 17 | 20 | 19 | 15 | 17 | broth MIC value [20]: 8 µg/mL; broth MIC value [21]: 8 µg/mL
